# Reference: US10710978B2, “STK4 inhibitors for treatment of hematologic malignancies” (Dana-Farber Cancer Institute, Inc., priority 2015, dated 2020)
# Like-named read-outs stand apart in the source and are kept apart here.
# Columns and labels:
# Test in all cases: KiNativ assay
# Assay type in all cases: binding
# Details in all cases: H929 live cell
# [1] = biological target: MAP2K4 (Homo sapiens (Human), UniProt P45985)
# Protocol: (§1) Biochemical IC50s of the compounds of the present disclosure against various kinases were measured in a KiNativ assay. Compounds were screened in duplicate at 10 μM in H929 live cell. IC50 was measured via Mass spectroscopy (MS).
# [2] = biological target: EphB2 (Homo sapiens (Human), UniProt P29323)
# EphB2, sequence (P29323 19-1055): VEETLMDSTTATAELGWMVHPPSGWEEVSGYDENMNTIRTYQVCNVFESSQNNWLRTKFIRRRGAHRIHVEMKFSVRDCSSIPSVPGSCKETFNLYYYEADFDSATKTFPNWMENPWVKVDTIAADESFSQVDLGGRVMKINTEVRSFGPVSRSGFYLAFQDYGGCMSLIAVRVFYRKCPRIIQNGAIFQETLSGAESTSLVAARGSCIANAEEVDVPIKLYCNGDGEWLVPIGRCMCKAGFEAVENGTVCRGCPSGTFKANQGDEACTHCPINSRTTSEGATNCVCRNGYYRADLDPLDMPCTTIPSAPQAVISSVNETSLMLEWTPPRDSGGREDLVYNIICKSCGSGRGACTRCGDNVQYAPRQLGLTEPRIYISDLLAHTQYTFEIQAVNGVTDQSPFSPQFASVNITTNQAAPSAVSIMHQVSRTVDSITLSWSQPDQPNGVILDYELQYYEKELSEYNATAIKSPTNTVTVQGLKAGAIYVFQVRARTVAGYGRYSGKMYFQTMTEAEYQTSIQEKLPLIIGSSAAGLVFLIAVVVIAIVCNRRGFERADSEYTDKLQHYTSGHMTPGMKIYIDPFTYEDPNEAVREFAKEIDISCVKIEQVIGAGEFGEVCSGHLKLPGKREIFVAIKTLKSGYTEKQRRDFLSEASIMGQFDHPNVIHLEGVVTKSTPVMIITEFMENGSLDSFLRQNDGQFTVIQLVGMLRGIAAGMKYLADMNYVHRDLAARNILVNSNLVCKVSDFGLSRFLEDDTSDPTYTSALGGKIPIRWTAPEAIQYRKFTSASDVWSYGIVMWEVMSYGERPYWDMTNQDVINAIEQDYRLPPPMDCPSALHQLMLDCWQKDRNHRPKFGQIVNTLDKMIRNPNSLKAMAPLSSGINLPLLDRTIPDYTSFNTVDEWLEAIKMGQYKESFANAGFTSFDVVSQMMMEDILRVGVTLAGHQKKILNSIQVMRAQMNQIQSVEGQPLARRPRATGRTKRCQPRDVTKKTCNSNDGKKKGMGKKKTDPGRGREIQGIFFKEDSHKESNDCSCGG
# Protocol: as §1
# [3] = biological target: Erk1 (Homo sapiens (Human), UniProt P27361)
# Erk1, sequence (P27361 whole entry): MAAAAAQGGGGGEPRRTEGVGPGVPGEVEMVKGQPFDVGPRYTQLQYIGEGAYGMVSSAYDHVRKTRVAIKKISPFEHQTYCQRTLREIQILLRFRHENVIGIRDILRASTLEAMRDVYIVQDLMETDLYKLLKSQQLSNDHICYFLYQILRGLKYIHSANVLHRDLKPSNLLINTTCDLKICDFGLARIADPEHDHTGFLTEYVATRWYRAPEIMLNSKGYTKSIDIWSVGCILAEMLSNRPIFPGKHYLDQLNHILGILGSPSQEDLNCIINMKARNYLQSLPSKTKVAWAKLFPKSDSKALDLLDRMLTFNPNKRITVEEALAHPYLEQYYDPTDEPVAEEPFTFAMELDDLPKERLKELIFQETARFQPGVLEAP
# Protocol: as §1
# [4] = biological target: PIK3CG (Homo sapiens (Human), UniProt P48736)
# Protocol: as §1
# [5] = system: ABL, ARG
# Protocol: as §1
# [6] = biological target: LYN (Homo sapiens (Human), UniProt P07948)
# LYN, sequence (P07948 whole entry): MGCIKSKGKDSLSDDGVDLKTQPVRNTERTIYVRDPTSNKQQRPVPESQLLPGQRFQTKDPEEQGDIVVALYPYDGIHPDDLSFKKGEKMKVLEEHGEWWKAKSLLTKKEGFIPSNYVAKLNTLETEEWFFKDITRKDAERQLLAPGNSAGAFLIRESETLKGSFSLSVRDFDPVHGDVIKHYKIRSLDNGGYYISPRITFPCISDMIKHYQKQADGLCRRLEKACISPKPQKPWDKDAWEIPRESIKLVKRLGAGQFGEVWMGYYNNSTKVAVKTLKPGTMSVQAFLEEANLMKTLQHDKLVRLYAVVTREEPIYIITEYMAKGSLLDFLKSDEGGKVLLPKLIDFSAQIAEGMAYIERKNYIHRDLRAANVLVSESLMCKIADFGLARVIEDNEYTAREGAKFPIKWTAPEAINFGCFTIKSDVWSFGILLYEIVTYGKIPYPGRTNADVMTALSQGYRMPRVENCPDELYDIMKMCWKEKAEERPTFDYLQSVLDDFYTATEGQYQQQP
# Protocol: as §1
# [7] = biological target: SRPK2 (Homo sapiens (Human), UniProt P78362)
# SRPK2, sequence (P78362 whole entry): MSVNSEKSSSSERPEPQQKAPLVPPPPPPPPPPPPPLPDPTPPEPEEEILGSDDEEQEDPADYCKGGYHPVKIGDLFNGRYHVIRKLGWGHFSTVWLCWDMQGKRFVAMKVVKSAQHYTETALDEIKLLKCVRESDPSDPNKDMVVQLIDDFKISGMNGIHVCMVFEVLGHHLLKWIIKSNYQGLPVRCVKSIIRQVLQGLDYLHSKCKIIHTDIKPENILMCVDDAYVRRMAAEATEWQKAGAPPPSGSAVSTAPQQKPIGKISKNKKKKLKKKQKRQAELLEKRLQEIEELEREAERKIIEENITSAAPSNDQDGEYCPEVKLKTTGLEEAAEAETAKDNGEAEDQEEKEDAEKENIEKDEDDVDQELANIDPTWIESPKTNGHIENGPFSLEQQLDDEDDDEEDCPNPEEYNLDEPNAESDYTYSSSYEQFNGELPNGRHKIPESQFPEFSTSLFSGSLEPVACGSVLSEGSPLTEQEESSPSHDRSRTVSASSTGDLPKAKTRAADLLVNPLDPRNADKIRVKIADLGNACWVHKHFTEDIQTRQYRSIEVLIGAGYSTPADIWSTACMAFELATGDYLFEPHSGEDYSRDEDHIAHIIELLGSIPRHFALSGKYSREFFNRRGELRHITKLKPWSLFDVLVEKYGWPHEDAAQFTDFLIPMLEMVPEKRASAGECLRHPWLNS
# Protocol: as §1
# [8] = system: IKKe, TBK1
# Protocol: as §1
# [9] = biological target: MPSK1 (Homo sapiens (Human), UniProt O75716)
# Protocol: as §1
# [10] = biological target: TYK2 domain2 (Homo sapiens (Human), UniProt P29597)
# Protocol: as §1
# [11] = biological target: CHK1 (Homo sapiens (Human), UniProt O14757)
# Protocol: as §1
# [12] = system: JNK1, JNK2, JNK3
# Protocol: as §1
# [13] = system: TAO1, TAO3
# Protocol: as §1
# [14] = system: NEK6, NEK7
# Protocol: as §1
# [15] = biological target: p38a (Homo sapiens (Human), UniProt Q16539)
# How it was run: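 KiNativ profiling in live H929 cells; single concentration 10 μM, n=2; IC50 from MS measurement.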
# [16] = biological target: PIP5K3 (Homo sapiens (Human), UniProt Q9Y2I7)
# Protocol: as §1
# [17] = system: MAPKAPK2, MAPKAPK3
# Protocol: as §1
# [18] = system: KSR1, KSR2
# Protocol: as §1
# [19] = biological target: PRP4 (Homo sapiens (Human), UniProt Q13523)
# Protocol: as §1
# [20] = biological target: RSKL1 (Homo sapiens (Human), UniProt Q96S38)
# Protocol: as §1
# [21] = biological target: TAO2 (Homo sapiens (Human), UniProt Q9UL54)
# TAO2, sequence (Q9UL54 whole entry): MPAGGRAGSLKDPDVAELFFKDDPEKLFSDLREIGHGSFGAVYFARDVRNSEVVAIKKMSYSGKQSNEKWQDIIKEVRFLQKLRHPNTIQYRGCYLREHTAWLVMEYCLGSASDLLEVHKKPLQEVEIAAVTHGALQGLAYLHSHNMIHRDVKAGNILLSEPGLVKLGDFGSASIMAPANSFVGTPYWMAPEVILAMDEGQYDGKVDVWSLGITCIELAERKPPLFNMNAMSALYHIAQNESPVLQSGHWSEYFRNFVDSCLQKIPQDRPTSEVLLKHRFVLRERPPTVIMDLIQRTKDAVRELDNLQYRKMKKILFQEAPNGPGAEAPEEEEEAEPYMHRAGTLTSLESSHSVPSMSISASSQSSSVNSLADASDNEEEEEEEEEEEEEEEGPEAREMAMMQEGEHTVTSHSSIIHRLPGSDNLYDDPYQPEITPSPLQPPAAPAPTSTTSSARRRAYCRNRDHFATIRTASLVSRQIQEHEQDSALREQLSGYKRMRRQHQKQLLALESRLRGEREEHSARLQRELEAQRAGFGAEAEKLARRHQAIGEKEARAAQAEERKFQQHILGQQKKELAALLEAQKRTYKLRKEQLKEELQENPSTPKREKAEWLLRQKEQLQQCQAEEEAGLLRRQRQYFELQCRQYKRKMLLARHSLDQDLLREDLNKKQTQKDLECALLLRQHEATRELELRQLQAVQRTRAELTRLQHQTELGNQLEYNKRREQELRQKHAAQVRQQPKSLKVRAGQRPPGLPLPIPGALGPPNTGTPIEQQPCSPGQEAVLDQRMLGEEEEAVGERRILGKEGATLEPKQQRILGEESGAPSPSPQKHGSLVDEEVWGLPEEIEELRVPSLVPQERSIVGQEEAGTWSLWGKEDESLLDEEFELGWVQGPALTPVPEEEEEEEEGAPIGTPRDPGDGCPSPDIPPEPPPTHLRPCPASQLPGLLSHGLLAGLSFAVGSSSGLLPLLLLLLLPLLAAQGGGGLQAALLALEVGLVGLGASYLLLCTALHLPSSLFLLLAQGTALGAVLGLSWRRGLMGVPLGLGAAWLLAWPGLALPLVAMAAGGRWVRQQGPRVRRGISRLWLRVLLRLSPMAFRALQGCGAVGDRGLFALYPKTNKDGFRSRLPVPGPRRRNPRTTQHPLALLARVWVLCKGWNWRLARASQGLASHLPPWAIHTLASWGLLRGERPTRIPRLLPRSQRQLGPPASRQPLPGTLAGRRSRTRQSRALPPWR
# Protocol: as §1
# [22] = biological target: GCK (Homo sapiens (Human), UniProt Q12851)
# GCK, sequence (Q12851 whole entry): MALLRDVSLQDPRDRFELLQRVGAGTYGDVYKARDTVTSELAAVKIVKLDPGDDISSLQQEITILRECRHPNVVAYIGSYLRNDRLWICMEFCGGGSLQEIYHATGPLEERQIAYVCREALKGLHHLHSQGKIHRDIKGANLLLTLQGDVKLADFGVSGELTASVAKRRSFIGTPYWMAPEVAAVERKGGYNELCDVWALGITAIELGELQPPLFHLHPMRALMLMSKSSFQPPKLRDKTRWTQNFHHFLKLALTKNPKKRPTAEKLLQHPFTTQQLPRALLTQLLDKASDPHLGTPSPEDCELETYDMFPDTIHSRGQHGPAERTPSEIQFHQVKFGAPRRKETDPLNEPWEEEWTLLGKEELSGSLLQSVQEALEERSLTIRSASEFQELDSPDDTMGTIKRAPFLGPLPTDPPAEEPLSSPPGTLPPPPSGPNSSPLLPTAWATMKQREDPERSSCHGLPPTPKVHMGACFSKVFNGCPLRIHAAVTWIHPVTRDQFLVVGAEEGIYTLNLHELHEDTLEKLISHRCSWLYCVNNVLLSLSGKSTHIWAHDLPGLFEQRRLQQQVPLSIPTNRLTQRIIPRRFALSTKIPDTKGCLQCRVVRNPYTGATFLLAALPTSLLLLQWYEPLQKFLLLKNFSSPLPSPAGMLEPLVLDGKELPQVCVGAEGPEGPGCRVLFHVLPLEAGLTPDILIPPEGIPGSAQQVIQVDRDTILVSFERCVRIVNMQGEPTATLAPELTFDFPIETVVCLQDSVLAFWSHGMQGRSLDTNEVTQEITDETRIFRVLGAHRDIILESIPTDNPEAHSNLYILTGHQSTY
# Protocol: as §1
# [23] = biological target: TLK2 (Homo sapiens (Human), UniProt Q86UE8)
# Protocol: as §1
# [24] = biological target: MAP2K1 (Homo sapiens (Human), UniProt Q02750)
# Protocol: as §1
# [25] = biological target: FRAP (Homo sapiens (Human), UniProt P42345)
# Protocol: as §1
# [26] = biological target: MAP3K2 (Homo sapiens (Human), UniProt Q9Y2U5)
# Protocol: as §1
# [27] = biological target: BARK1 (Homo sapiens (Human), UniProt P25098)
# Protocol: as §1
# [28] = biological target: CDC2 (Homo sapiens (Human), UniProt P06493)
# Protocol: as §1
# [29] = biological target: IKKb (Homo sapiens (Human), UniProt O14920)
# Protocol: as §1
# [30] = biological target: CaMK1d (Homo sapiens (Human), UniProt Q8IU85)
# Protocol: as §1
# [31] = system: Wnk1, Wnk2, Wnk3
# Protocol: as §1
# [32] = biological target: AurA (Homo sapiens (Human), UniProt O14965)
# Protocol: as §1
# [33] = biological target: ULK1 (Homo sapiens (Human), UniProt O75385)
# Protocol: as §1
# [34] = biological target: NEK8 (Homo sapiens (Human), UniProt Q86SG6)
# Protocol: as §1
# [35] = range class, read-out: % inhibition
# MAP2K4, sequence (P45985 whole entry): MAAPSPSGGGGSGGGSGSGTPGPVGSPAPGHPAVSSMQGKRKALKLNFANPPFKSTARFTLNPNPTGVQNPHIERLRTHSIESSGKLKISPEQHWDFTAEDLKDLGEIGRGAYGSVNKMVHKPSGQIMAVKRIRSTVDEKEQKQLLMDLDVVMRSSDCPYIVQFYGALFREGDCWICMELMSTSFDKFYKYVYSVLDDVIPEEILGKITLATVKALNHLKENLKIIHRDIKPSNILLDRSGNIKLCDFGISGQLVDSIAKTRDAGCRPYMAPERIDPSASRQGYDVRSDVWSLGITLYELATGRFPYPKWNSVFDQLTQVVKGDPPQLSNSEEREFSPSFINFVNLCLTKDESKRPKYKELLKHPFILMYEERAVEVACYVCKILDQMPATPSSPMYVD
smiles,measurement,setting,value
"CN(C1CC1)S(=O)(=O)c1ccc(-c2cnc(N)c(-c3ccc4c(c3)CCNC4=O)c2)c(F)c1 [Compound I-28, 4-(6-amino-5-(1-oxo-1,2,3,4-tetrahydroisoquinolin-6-yl)pyridin-3-yl)-N-cyclopropyl-3-fluoro-N-methylbenzenesulfonamide]",inhibition at 10 µM,[1]; read-out: % inhibition (range),0%
same,inhibition at 10 µM,[1]; read-out: inhibition (10 μM),32.5%
same,inhibition at 10 µM,[2]; read-out: % inhibition (range),0%
same,inhibition at 10 µM,[2]; read-out: inhibition (10 μM),-2%
same,inhibition at 10 µM,[3]; read-out: % inhibition (range),0%
same,inhibition at 10 µM,[3]; read-out: inhibition (10 μM),11%
same,inhibition at 10 µM,[4]; read-out: % inhibition (range),0%
same,inhibition at 10 µM,[4]; read-out: inhibition (10 μM),1.7%
same,% inhibition (range),[5]; 10 μM,0.0%
same,inhibition (10 μM),[5],13.3%
same,inhibition at 10 µM,[6]; read-out: % inhibition (range),0%
same,inhibition at 10 µM,[6]; read-out: inhibition (10 μM),-10.3%
same,inhibition at 10 µM,[7]; read-out: % inhibition (range),0%
same,inhibition at 10 µM,[7]; read-out: inhibition (10 μM),8.5%
same,% inhibition (range),[8]; 10 μM,0.0%
same,inhibition (10 μM),[8],−14.8%
same,inhibition at 10 µM,[9]; read-out: % inhibition (range),0%
same,inhibition at 10 µM,[9]; read-out: inhibition (10 μM),-9.1%
same,inhibition at 10 µM,[10]; read-out: % inhibition (range),0%
same,inhibition at 10 µM,[10]; read-out: inhibition (10 μM),3.8%
same,inhibition at 10 µM,[11]; read-out: % inhibition (range),0%
same,inhibition at 10 µM,[11]; read-out: inhibition (10 μM),27.5%
same,% inhibition (range),[12]; 10 μM,0.0%
same,inhibition (10 μM),[12],−12.9%
same,% inhibition (range),[13]; 10 μM,75-90%
same,inhibition (10 μM),[13],85.5%
same,% inhibition (range),[14]; 10 μM,0.0%
same,inhibition (10 μM),[14],−10.5%
same,inhibition at 10 µM,[15]; read-out: % inhibition (range),0%
same,inhibition at 10 µM,[16]; read-out: % inhibition (range),75 to 90%
same,inhibition at 10 µM,[16]; read-out: inhibition (10 μM),83.4%
same,% inhibition (range),[17]; 10 μM,0.0%
same,inhibition (10 μM),[17],−5.0%
same,% inhibition (range),[18]; 10 μM,0.0%
same,inhibition (10 μM),[18],−14.5%
same,inhibition at 10 µM,[19]; read-out: % inhibition (range),0%
same,inhibition at 10 µM,[19]; read-out: inhibition (10 μM),3.7%
same,inhibition at 10 µM,[20]; read-out: % inhibition (range),0%
same,inhibition at 10 µM,[20]; read-out: inhibition (10 μM),-26.1%
same,inhibition at 10 µM,[21]; read-out: % inhibition (range),50 to 75%
same,inhibition at 10 µM,[21]; read-out: inhibition (10 μM),61.5%
same,inhibition at 10 µM,[22]; read-out: % inhibition (range),75 to 90%
same,inhibition at 10 µM,[22]; read-out: inhibition (10 μM),84.7%
same,inhibition at 10 µM,[23]; read-out: % inhibition (range),0%
same,inhibition at 10 µM,[23]; read-out: inhibition (10 μM),14.2%
same,inhibition at 10 µM,[24]; read-out: % inhibition (range),0%
same,inhibition at 10 µM,[24]; read-out: inhibition (10 μM),-5.5%
same,inhibition at 10 µM,[25]; read-out: % inhibition (range),35 to 50%
same,inhibition at 10 µM,[25]; read-out: inhibition (10 μM),35.3%
same,inhibition at 10 µM,[26]; read-out: % inhibition (range),0%
same,inhibition at 10 µM,[26]; read-out: inhibition (10 μM),7%
same,inhibition at 10 µM,[27]; read-out: % inhibition (range),0%
same,inhibition at 10 µM,[27]; read-out: inhibition (10 μM),22.3%
same,inhibition at 10 µM,[28]; read-out: % inhibition (range),0%
same,inhibition at 10 µM,[28]; read-out: inhibition (10 μM),-26.5%
same,inhibition at 10 µM,[29]; read-out: % inhibition (range),0%
same,inhibition at 10 µM,[29]; read-out: inhibition (10 μM),6.8%
same,inhibition at 10 µM,[30]; read-out: % inhibition (range),0%
same,inhibition at 10 µM,[30]; read-out: inhibition (10 μM),15.2%
same,% inhibition (range),[31]; 10 μM,0.0%
same,inhibition (10 μM),[31],−31.8%
same,inhibition (10 μM),[32],33.1%
same,inhibition at 10 µM,[32]; read-out: % inhibition (range),0%
same,inhibition at 10 µM,[32]; read-out: inhibition (10 μM),27.5%
same,inhibition at 10 µM,[33]; read-out: % inhibition (range),0%
same,inhibition at 10 µM,[33]; read-out: inhibition (10 μM),-54.6%
same,inhibition at 10 µM,[34]; read-out: % inhibition (range),0%
same,inhibition at 10 µM,[34]; read-out: inhibition (10 μM),-3.4%
"COc1cc(NS(=O)(=O)C2CC2)ccc1-c1cnc(N)c(-c2ccc3c(c2)CCNC3=O)c1 [Compound I-50, N-(4-(6-amino-5-(1-oxo-1,2,3,4-tetrahydroisoquinolin-6-yl)pyridin-3-yl)-3-methoxyphenyl) cyclopropanesulfonamide]",inhibition at 10 µM,[1]; [35],35 to 40%
same,inhibition at 10 µM,[1]; read-out: inhibition (10 μM),37.5%
same,inhibition at 10 µM,[2]; [35],0%
same,inhibition at 10 µM,[2]; read-out: inhibition (10 μM),8.2%
same,inhibition at 10 µM,[3]; [35],0%
same,inhibition at 10 µM,[3]; read-out: inhibition (10 μM),29%
same,inhibition at 10 µM,[4]; [35],0%
same,inhibition at 10 µM,[4]; read-out: inhibition (10 μM),-74.9%
same,% inhibition,"[5]; 10 μM, range class",0.0%
same,inhibition (10 μM),[5],−53.7%
same,inhibition at 10 µM,[6]; [35],0%
same,inhibition at 10 µM,[6]; read-out: inhibition (10 μM),9.7%
same,inhibition at 10 µM,[7]; [35],0%
same,inhibition at 10 µM,[7]; read-out: inhibition (10 μM),1.8%
same,% inhibition,"[8]; 10 μM, range class",0.0%
same,inhibition (10 μM),[8],33.9%
same,inhibition at 10 µM,[9]; [35],0%
same,inhibition at 10 µM,[9]; read-out: inhibition (10 μM),15.7%
same,inhibition at 10 µM,[10]; [35],0%
same,inhibition at 10 µM,[10]; read-out: inhibition (10 μM),-21%
same,inhibition at 10 µM,[11]; [35],0%
same,inhibition at 10 µM,[11]; read-out: inhibition (10 μM),-9.6%
same,% inhibition,"[12]; 10 μM, range class",0.0%
same,inhibition (10 μM),[12],26.8%
same,% inhibition,"[13]; 10 μM, range class",0.0%
same,inhibition (10 μM),[13],17.8%
same,% inhibition,"[14]; 10 μM, range class",0.0%
same,inhibition (10 μM),[14],−54.5%
same,inhibition at 10 µM,[15]; [35],0%
same,inhibition at 10 µM,[16]; [35],75 to 90%
same,inhibition at 10 µM,[16]; read-out: inhibition (10 μM),79.7%
same,% inhibition,"[17]; 10 μM, range class",0.0%
same,inhibition (10 μM),[17],−34.3%
same,% inhibition,"[18]; 10 μM, range class",0.0%
same,inhibition (10 μM),[18],−18.4%
same,inhibition at 10 µM,[19]; [35],0%
same,inhibition at 10 µM,[19]; read-out: inhibition (10 μM),-17.9%
same,inhibition at 10 µM,[20]; [35],0%
same,inhibition at 10 µM,[20]; read-out: inhibition (10 μM),3.2%
same,inhibition at 10 µM,[21]; [35],0%
same,inhibition at 10 µM,[21]; read-out: inhibition (10 μM),9%
same,inhibition at 10 µM,[22]; [35],> 90%
same,inhibition at 10 µM,[22]; read-out: inhibition (10 μM),95.2%
same,inhibition at 10 µM,[23]; [35],0%
same,inhibition at 10 µM,[23]; read-out: inhibition (10 μM),-3%
same,inhibition at 10 µM,[24]; [35],0%
same,inhibition at 10 µM,[24]; read-out: inhibition (10 μM),17.8%
same,inhibition at 10 µM,[25]; [35],0%
same,inhibition at 10 µM,[25]; read-out: inhibition (10 μM),21.5%
same,inhibition at 10 µM,[26]; [35],0%
same,inhibition at 10 µM,[26]; read-out: inhibition (10 μM),-39.1%
same,inhibition at 10 µM,[27]; [35],0%
same,inhibition at 10 µM,[27]; read-out: inhibition (10 μM),-19.4%
same,inhibition at 10 µM,[28]; [35],0%
same,inhibition at 10 µM,[28]; read-out: inhibition (10 μM),13.7%
same,inhibition at 10 µM,[29]; [35],0%
same,inhibition at 10 µM,[29]; read-out: inhibition (10 μM),-26.2%
same,inhibition at 10 µM,[30]; [35],0%
same,inhibition at 10 µM,[30]; read-out: inhibition (10 μM),10.6%
same,% inhibition,"[31]; 10 μM, range class",0.0%
same,inhibition (10 μM),[31],15.9%
same,inhibition (10 μM),[32],11.9%
same,inhibition at 10 µM,[32]; [35],0%
same,inhibition at 10 µM,[32]; read-out: inhibition (10 μM),18%
same,inhibition at 10 µM,[33]; [35],0%
same,inhibition at 10 µM,[33]; read-out: inhibition (10 μM),28.8%
same,inhibition at 10 µM,[34]; [35],0%
same,inhibition at 10 µM,[34]; read-out: inhibition (10 μM),-8.1%
